For assay [1], the system named is prostaglandin receptors (Ptger1-4). Nature of the assay: Quantitative RT-PCR of prostaglandin receptors in MuSCs. As to conditions: 24 hr PGE2 treatment of MuSCs. Format: cell-based, mouse.
Method: Quantitative RT-PCR: We isolated RNA from MuSCs using the RNeasy Micro Kit (Qiagen). […] We reverse-transcribed cDNA from total mRNA from each sample using the SensiFAST™ cDNA Synthesis Kit (Bioline). We subjected cDNA to RT-PCR using SYBR Green PCR Master Mix (Applied Biosystems) or TaqMan Assays (Applied Biosystems) in an ABI 7900HT Real-Time PCR System (Applied Biosystems). We cycled samples at 95° C. for 10 min and then 40 cycles at 95° C. for 15 s and 60° C. for 1 min. […] For SYBR Green qRT-PCR, we used the following primer sequences: Gapdh, forward 5′-[sequence]-3′ (SEQ ID NO: 1), reverse 5′-[sequence]-3′ (SEQ ID NO: 2); Hpgd, forward 5′-[sequence]-3′ (SEQ ID NO: 3), reverse 5′-[sequence]-3′ (SEQ ID NO: 4); Ptges, forward 5′-[sequence]-3′ (SEQ ID NO: 5), reverse 5′-[sequence]-3′ (SEQ ID NO: 6); Ptges2, forward 5′-[sequence]-3′ (SEQ ID NO: 7), reverse 5′-[sequence]-3′ (SEQ ID NO: 8); Ptger1, forward 5′ [sequence]-3′ (SEQ ID NO: 9), reverse, 5′ [sequence]-3′ (SEQ ID NO: 10), and Ptger2, forward 5′-[sequence]-3′ (SEQ ID NO: 11), reverse 5′-[sequence]-3′ (SEQ ID NO: 12). TaqMan Assays (Applied Biosystems) were used to quantify Pax7, Myogenin, Slco2a1 (PGT), Ptger3 and Ptger4 in samples according to the manufacturer instructions with the TaqMan Universal PCR Master Mix reagent kit (Applied Biosystems). Transcript levels were expressed relative to Gapdh levels. […]
In assay [2] the test system is MuSCs. The experiment in a line: Clonal MuSC proliferation by time-lapse microscopy (38 h). The assay is classed as cell-based, mouse. As to conditions: PGE2 24 hr. The procedure:
We assayed clonal muscle stem cell proliferation by time-lapse microscopy as previously described (26, 27). […] Cells were then trypsinized and reseeded at a density of 500 cells per cm^2 surface area in hydrogel microwells with 600 μm diameter. For time-lapse microscopy we monitored cell proliferation for those wells with single cells for 38 h days after seeding and recorded images every 3 min at 10× magnification using a PALM/AxioObserver Z1 system (Carl Zeiss MicroImaging) with a custom environmental control chamber and motorized stage. We analyzed time-lapse image sequences using the Baxter Algorithms for Cell Tracking and Lineage Reconstruction to identify and track single cells and generate lineage trees (26-28, 51, 52). Viable and dead cells were distinguished in time-lapse sequences based on phase-contrast boundary and motility maintenance or loss, respectively. […] The data analysis was blinded. The researchers performing the imaging acquisition and scoring were unaware of the treatment condition given to sample groups analyzed. Clonal muscle stem cell proliferation and fate analyses: […] Cells were then trypsinized and reseeded at a density of 500 cells per cm^2 surface area in hydrogel microwells with 600 μm diameter. For time-lapse microscopy we monitored cell proliferation for those wells with single cells for 38 h days after seeding and recorded images every 3 min at 10× magnification using a PALM/AxioObserver Z1 system (Carl Zeiss MicroImaging) with a custom environmental control chamber and motorized stage. We analyzed time-lapse image sequences using the Baxter Algorithms for Cell Tracking and Lineage Reconstruction to identify and track single cells and generate lineage trees (26-28, 51, 52). Viable and dead cells were distinguished in time-lapse sequences based on phase-contrast boundary and motility maintenance or loss, respectively. […] The data analysis was blinded. The researchers performing the imaging acquisition and scoring were unaware of the treatment condition given to sample groups analyzed.

Assay [3] concerns endogenous MuSCs in tibialis anterior (TA) muscles. The experiment in a line: BLI of endogenous MuSC expansion after intramuscular bupivacaine/dmPGE2 (Example 4). Format: in vivo, mouse. The procedure:
Double-transgenic Pax7^CreERT2;Rosa26-LSL-Luc mice were generated by crossing Pax7^CreERT2 mice and Rosa26-LSL-Luc mice obtained from Jackson Laboratory (Stock #005125). These genotypes were validated by appropriate PCR-based strategies. All mice from transgenic and wild-type strains were of young age (2-4 months). All experiments were conducted using age and gender-matched controls. As depicted in the experimental scheme shown in FIG. 23A, mice were treated with five consecutive daily intraperitoneal injections of tamoxifen to activate luciferase expression under the control of the Pax7 promoter. A week after the last tamoxifen injection, the tibialis anterior (TA) muscles were injected intramuscularly with 50 μL of a drug mixture containing 0.125%, 0.25%, or 0.5% bupivacaine (BPV) (Cayman Chemical Cat #16618) and 10 μg 16,16-dimethyl prostaglandin E2 (dmPGE2; Tocris, Catalog #4027) using a 30 gauge needle on a Hamilton syringe. The contralateral TA received 50 μL of a mixture containing 0.5% bupivacaine (BPV) and DMSO vehicle as baseline sham control. Bioluminescence was assayed at days 3, 7, 10 and 14 post-injury.
Bioluminescence imaging (BLI) was performed using a Xenogen-100 system, as previously described. Briefly, mice were anesthetized using isofluorane inhalation and administered 120 μL D-luciferin (0.1 mmol/kg, reconstituted in PBS; Caliper LifeSciences) by intraperitoneal injection. BLI was acquired with between 5-60 second exposure at F-stop=1.0 at 5 minutes after luciferin injection. Digital images were recorded and analyzed using Living Image software (Caliper LifeSciences). Images were analyzed with a consistent region-of-interest (ROI) placed over each hindlimb to calculate a bioluminescence signal. A bioluminescence signal was calculated in radiance (p s^−1 cm^−2 sr^−1) value of 10^4 to define a positive threshold signal over background. BLI imaging was performed bi-weekly for 2 weeks after coinjection of BPV with dmPGE2 or vehicle.
The data in FIGS. 23A-C and 24 are shown as the mean±s.e.m. with n=6 mice. […]

“Also recorded” adds a separate entry of the source.

With `CCCCC[C@H](O)/C=C/[C@H]1[C@H](O)CC(=O)[C@@H]1C/C=C\CCCC(=O)O` [PGE2, prostaglandin E2], the “transcript levels of prostaglandin receptors (Ptger1-4) after PGE2 treatment” value in assay [1] is “only receptors upregulated after PGE2 treatment of MuSCs are Ptger1 and Ptger4; also recorded: the most highly expressed receptor in MuSCs is Ptger4”. For the same molecule, in assay [2], the “cell sizes of tracked MuSCs” value was “increase in the incidence of larger cell sizes” and the “total cells at the end of the 38 h timespan vs vehicle” value is “almost twice the number of total cells”. Also, the “entry into mitosis post-plating” value in assay [2] (38 h tracking) was “entry into mitosis is accelerated”. Further, the “cumulative cell divisions and cell numbers of MuSC clones” value in assay [2] (38 h tracking, young MuSCs) was “marked increase in cumulative cell divisions and cell numbers”.

`CCCCC(C)(C)[C@H](O)/C=C/[C@H]1[C@H](O)CC(=O)[C@@H]1C/C=C\CCCC(=O)O` [dmPGE2, 16,16-dimethyl prostaglandin E2]: the “log fold change in BLI two weeks after injection” value in assay [3] (50 μL into TA, BPV plus 10 μg dmPGE2 compared to BPV/vehicle, dmPGE2 only group) is “No detectable change”. Besides, the “muscle regeneration vs dmPGE2 dose” value in assay [3] (as stated in summary of Example 4) is “more pronounced muscle regeneration”.

These data come from patent US11738031B2, “Compositions and methods for preventing or treating muscle conditions” (The Board of Trustees of the Leland Stanford Junior …, priority 2017, dated 2023).
